# Test results: PMC11066877, “Development and Characterization of Novel FAP-Targeted Theranostic Pairs: A Bench-to-Bedside Study” (Research, 2023)
# Read-outs that look alike come from different tables or passages of the source.
# Columns and labels:
# [1] = Stability of 177Lu-labeled radiopharmaceuticals in FBS and PBS; type: in vitro ADME; details: 50% FBS and 50% PBS, checked at 2 h and 24 h
# Procedure: To perform ^68Ga-labeling, approximately 20 nmol of FD1, FD2, or FD3 was dissolved in 20 μl of dimethyl sulfoxide and 230 μl of sterile deionized water. This mixture was added to 400 μl of ^68GaCl3 solution (containing 37 MBq) in 0.1 M HCl, with pH adjusted to 4.0 using 0.1 M NH4OAC. The mixture was incubated at 100 °C for 10 min without any additional purification steps. For ^177Lu-labeling, high-purity radionuclide ^177LuCl3 in 0.04 M HCl (3.9 GBq in 97 μl) was purchased from ITM (Munich, Germany). ^177LuCl3 solution (555 MBq in 0.04 M HCl) was added to 500 μl of 1M NH4OAC (pH = 5), followed by the addition of 375 nmol of FD1, FD2, or FD3. The solution was shaken at a temperature of 100 °C for a duration of 30 min. Instant thin-layer chromatography (iTLC; Eckert & Ziegler Radiopharma Inc.) was used to evaluate the RCP of the final products. For iTLC, the mobile phase consisted of 1 M NH4OAC and methyl alcohol in a ratio of 1:1. The final solution must be adjusted to pH 7.0 before being injected into the experimental mice via the tail vein. The stability of ^177Lu-labeled radiopharmaceuticals was evaluated in a mixture of 50% FBS and 50% PBS at 2 h and 24 h after preparation. In the process of preparing each [^68Ga]Ga-DOTA-FD1 for clinical imaging, the end product underwent sterilization by passing it through a 0.22-μm Millipore filter.
# [2] = Ex vivo biodistribution of 177Lu-labeled radioligands in tumor-free nude mice; details: mouse, blood, intravenous, 1.11 MBq, total radioactivity, 24 h p.i., read-out: accumulation in the blood pool (biodistribution)
# Source text: (§1) After imaging collection and image reconstruction, samples from euthanized experimental mice, including blood and multiple significant organs, were harvested and weighed. The radioactivity in each collected tissue was counted using an automated gamma counter (Wizard 2480, PerkinElmer) and the accumulation of radioactivity in different tissues and organs was quantified and expressed as %ID/g (mean ± SD). [^177Lu]Lu-DOTA-FD1 (~1.11 MBq, n = 3), [^177Lu]Lu-DOTA-FD2 (~1.11 MBq, n = 3), and [^177Lu]Lu-DOTA-FD3 (~1.11 MBq, n = 3) were injected into the tail vein of free nude mice at 6 h, 24 h, and 24 h for ex vivo biodistribution to verify the circulation time of the 3 probes in vivo. Biodistribution data from tumor-bearing mice injected with [^177Lu]Lu-DOTA-FD3 at 45 h (~1.11 MBq, n = 4) and 90 h (~1.11 MBq, n = 3) validated the prolonged enrichment of the probe at the tumor site. At the end of each probe imaging and radioactivity counting study, tumor tissues were fixed in paraformaldehyde tissue fixative. Briefly, sections of 10 μm were cut and stained for H&E following the standard protocols. IHC staining with a FAP antibody (ab227703, Abcam) was performed only on tumor tissues following accepted techniques.
# [3] = Ex vivo biodistribution of [177Lu]Lu-DOTA-FD3 in HT1080-FAP tumor models; set-up: species or system mice; details: nude (thymus-free), mouse, 1.11 MBq, total radioactivity
# Source text: as §1
# HT1080-FAP tumor = assay: FAP-targeted radioligand therapy in HT1080-FAP tumor models; type: in vivo, mice
# Procedure: (§2) HT1080-FAP tumor models with higher levels of FAP expression were utilized in this study. Tumor-bearing mice were subjected to therapy experiments when the tumor volume reached 50 to 180 mm^3. Tumor models with different tumor volumes were injected with different therapeutic doses. Mice bearing HT1080-FAP tumors of slightly larger tumor volumes were randomly assigned into 4 groups (n = 5 per group): control group and treatment groups with 800 μCi of [^177Lu]Lu-DOTA-FD1, 400 μCi of [^177Lu]Lu-DOTA-FD3, and 600 μCi [^177Lu]Lu-DOTA-FD3. Mice bearing HT1080-FAP tumors of slightly smaller tumor volumes were also divided into 4 groups (n = 6 per group): control group and treatment groups with 200 μCi of [^177Lu]Lu-DOTA-FD1, 200 μCi of [^177Lu]Lu-DOTA-FD2, and 200 μCi of [^177Lu]Lu-DOTA-FD3. Tumor volume and mice body weight were examined daily after a single-dose injection. Weight monitoring is expressed as a percentage of initial weight on the measurement day. Tumor volume was measured as half of the length × width squared times. Mice were euthanized when the tumor volume exceeded 1,500 mm^3, the tumor ruptured, or when it lost more than 20% of its body weight. T3M-4 tumor models with abundant stroma were established to validate the therapeutic efficacy of [^177Lu]Lu-DOTA-FD3. When the tumor volume grew to 100 to 150 mm^3, the mice were randomly divided into 2 groups (n = 7 per group): free ^177Lu treatment group and 500 μCi [^177Lu]Lu-DOTA-FD3 treatment group. Tumor volume and mice body weight were examined every 2 days.
# T3M-4 tumor = assay: Radioligand therapy in T3M-4 pancreatic cancer models; type: in vivo, mice; details: T3M-4 models
# Procedure: as §2, with “When the tumor volume grew to 100 to 150 mm^3, the mice were randomly divided into 2 groups (n = 7 per group): free ^177Lu treatment group and 500 μCi [^177Lu]Lu-DOTA-FD3 treatment group. Tumor volume and mice body weight were examined every 2 days.” left out
# [4] = average tumor volume 180 mm^3 at onset, single dose 400 μCi or 600 μCi
smiles,measurement,setting,value
"CCCCCC(=O)N[C@H]1CSCc2cc(CSCCNC(=O)[C@H](CCCCNC(=O)CCCc3ccc(I)cc3)NC(=O)[C@@H](NC(=O)[C@H](CCSC)NC(=O)CN3CCN(CC(=O)O)CCN(CC(=O)O)CCN(CC(=O)O)CC3)C(C)C)cc(c2)CSC[C@@H](C(=O)O)NC(=O)[C@H](Cc2ccccc2)NC(=O)[C@H](CCC(N)=O)NC(=O)[C@H]([C@@H](C)O)NC(=O)[C@@H]2CCCN2C(=O)[C@@H]2CCCN2C1=O [[^177Lu]Lu-DOTA-FD3, metal not drawn]","stable in FBS and PBS, no significant demetallation",[1],at least 24 h
same,tissue uptake at 24 h,[2],28.1 ± 3.52 %ID/g
same,tissue uptake at 45 h,"[3]; 45 h, read-out: tumor uptake (biodistribution)",10.5 ± 1.02 %ID/g
same,tissue uptake at 90 h,"[3]; 90 h, read-out: tumor uptake (biodistribution)",12.4 ± 3.12 %ID/g
same,tissue uptake at 45 h,"[3]; blood, 45 h p.i., read-out: blood pool retention (biodistribution)",16.3 ± 2.5 %ID/g
same,tissue uptake at 90 h,"[3]; blood, 90 h p.i., read-out: blood pool retention (biodistribution)",11.5 ± 1.54 %ID/g
same,tumor growth at the end of the study,"HT1080-FAP tumor; average tumor volume 50 mm^3 at onset, single dose 200 μCi",substantially inhibited the tumor growth
same,mice that acquired complete response (CR),"HT1080-FAP tumor; average tumor volume 50 mm^3 at onset, single dose 200 μCi, 6 mice per group",3 out of the 6
same,tumor relapse,HT1080-FAP tumor; [4],relapsed from day 14 onward
same,tumor volume change after treatment,HT1080-FAP tumor; [4],began to shrink from day 2
same,mice weight versus free 177Lu treatment group,T3M-4 tumor; 500 μCi,slightly dropped
same,tumor volume until the end of the observation,"T3M-4 tumor; tumor volume around 135 mm^3 at onset, [177Lu]Lu-DOTA-FD3 at 500 μCi",satisfactorily controlled
